Measurements as given in patent US20050095239A1, “Methods and compositions for treating Alzheimer's disease” (priority 2002, published 2005).

What was measured:
[1] = tested on: ABCA1 protein expression in Neuro2A cells; assay: ABCA1 immunoblot of Neuro2A cells treated with retinoic acid and oxysterols; assay type: cell-based, mouse; conditions: for ABCA1 induction, densitometric analysis / increase of ABCA1 protein (immunoblot) compared with 22-hydroxycholesterol: 5 μM oxysterol with 5 μM retinoic acid; for increase of ABCA1 protein (immunoblot) compared with 22-hydroxycholesterol: one or two days
Experimental: (§1) Cell culture. Mouse Neuro2A (neuroblastoma) cells and human IMR-32 (neuroblastoma) cells (American Type Culture Collection, Manassas, Va.) were cultured in Optimem (Gibco, Invitrogen Life Technologies, Carlsbad, Calif.) supplemented with 10% fetal bovine serum. Mouse BV-2 (microglial) and rat C6 (glioma) cells were cultured in Dulbecco's modified Eagle's medium supplemented with 5% fetal bovine serum. Mouse primary neuronal cultures were generated as described (27). Briefly, cortical neurons were isolated from embryonic day 16 Swiss-Webster mice. Individual cortices was dissociated in calcium-free saline and plated on poly-D-lysine (Sigma) coated tissue culture dishes at the density of 1.5×10^6 cell/ml. The neurons were grown in Neurobasal Media (Gibco BRL) plus 10% fetal bovine serum. One hour after plating, medium with serum was replaced with medium containing B-27 supplement (Gibco BRL). Western blot. Cells were lysed in 250 mM sucrose, 10 mM HEPES (pH 7.4), supplemented with complete protease inhibitors (Sigma Chemical Co). Protein levels were quantified by the BCA assay (Pierce, Rockford, Ill.), and samples of 50 μg were held in SDS loading buffer with 2.5% β-mercaptoethanol for 30 min at room temperature, but were not boiled prior to loading. Proteins were separated by SDS-6% polyacrylamide gel electrophoresis and transferred to nitrocellulose. Blots were probed with the anti-ABC1 antibodies (1:1000), and developed with anti-rabbit linked HRP secondary antibody by chemiluminescence.

[2] = tested on: secreted Aβ42 from Neuro2A cells; assay: Aβ42 ELISA of conditioned medium of Neuro2A cells; assay type: cell-based, mouse; conditions: for increase of secreted Aβ42 over vehicle-treated cells: with retinoic acid, one day, 22-hydroxycholesterol 10 uM
Experimental: (§2) Cell culture. Mouse Neuro2A (neuroblastoma) cells and human IMR-32 (neuroblastoma) cells (American Type Culture Collection, Manassas, Va.) were cultured in Optimem (Gibco, Invitrogen Life Technologies, Carlsbad, Calif.) supplemented with 10% fetal bovine serum. Mouse BV-2 (microglial) and rat C6 (glioma) cells were cultured in Dulbecco's modified Eagle's medium supplemented with 5% fetal bovine serum. Mouse primary neuronal cultures were generated as described (27). Briefly, cortical neurons were isolated from embryonic day 16 Swiss-Webster mice. Individual cortices was dissociated in calcium-free saline and plated on poly-D-lysine (Sigma) coated tissue culture dishes at the density of 1.5×10^6 cell/ml. The neurons were grown in Neurobasal Media (Gibco BRL) plus 10% fetal bovine serum. One hour after plating, medium with serum was replaced with medium containing B-27 supplement (Gibco BRL).
(§3) RNA inhibition. Double stranded RNA (RNAi) was generated homologous to a region of the 5′ end of the coding portion of the mouse ABCA1 gene, 5′-AAGTGGCCTGGCCTCTCTTTA-3′ (SEQ ID NO:2) (Dharmacon Research Inc, Lafayette, Colo.). As a negative control, we used a sequence directed against the human hsp70 gene. Neuro2A cells were transfected with the RNAi with Effectene transfection reagent (Qiagen, Valencia, Calif.) according to manufacturer protocol. After an overnight exposure, RNAi complex was removed, cells were washed one time in growth medium, and the media was replaced with Neurobasal medium with 2% B-27 with or without LXR/RXR agonists for one day. Conditioned media was collected and analyzed for Aβ.
(§4) Aβanalyses. Cells were cultured in Neurobasal medium with 2% B-27 for one day in the presence or absence of LXR/RXR agonists. Aβ40 and Aβ42 levels in the conditioned medium were determined by ELISA, with BNT77 as a capture antibody and BA23-HRP for Aβ40 or BC05-HRP for Aβ42 as detection antibodies (28). Aβ antibodies for ELISA were the generous gift of Takeda Chemical Industries.

[3] = tested on: ABCA1 protein expression in BV-2 cells; assay: ABCA1 immunoblot of BV-2 microglial cells; assay type: cell-based, mouse
Experimental: as §1

[4] = tested on: secreted Aβ40 from Neuro2A cells; assay: Aβ40 ELISA of conditioned medium of Neuro2A cells; assay type: cell-based, mouse; conditions: for increase of secreted Aβ40 over vehicle-treated cells: with retinoic acid, one day, 22-hydroxycholesterol 10 uM
Experimental: as §2, §3, §4

[5] = tested on: ABCA1 protein expression in C6 cells; assay: ABCA1 immunoblot of C6 glioma cells; assay type: cell-based, rat
Experimental: as §1

[6] = tested on: ABCA1 protein expression in human neuroblastoma IMR-32 cells; assay: ABCA1 immunoblot of IMR-32 cells; assay type: cell-based; conditions: with retinoic acid
Experimental: as §1, with “Blots were probed with the anti-ABC1 antibodies (1:1000), and developed with anti-rabbit linked HRP secondary antibody by chemiluminescence.” left out

[7] = tested on: ABCA1 protein expression in mouse primary neurons; assay: ABCA1 immunoblot of mouse primary neurons treated with retinoic acid and 22-hydroxycholesterol; assay type: cell-based
Experimental: as §1, with “Blots were probed with the anti-ABC1 antibodies (1:1000), and developed with anti-rabbit linked HRP secondary antibody by chemiluminescence.” left out

LXRα or LXRβ isoforms = conditions: references 37, 38; cited from earlier work
[8] = 1 μM TO-901317 in the presence of 5 μM retinoic acid
[9] = cells treated only with buffer or with the RNAi named
[10] = retinoic acid and 22-hydroxycholesterol vs vehicle (ethanol), absence of RNAi
[11] = 5 μM retinoic acid and 5 μM 22-hydroxycholesterol together

SMILES: C[C@H](CCCC(C)(C)O)[C@H]1CC[C@H]2[C@@H]3CC=C4C[C@@H](O)CC[C@]4(C)[C@H]3CC[C@]12C [25-hydroxycholesterol]
- ABCA1 induction, densitometric analysis [1]: equivalent extent
- increase of ABCA1 protein (immunoblot) compared with 22-hydroxycholesterol [1]: nearly as well as 22-hydroxycholesterol

SMILES: O=S(=O)(c1ccccc1)N(CC(F)(F)F)c1ccc(C(O)(C(F)(F)F)C(F)(F)F)cc1 [TO-901317]
- increase of secreted Aβ42 over vehicle-treated cells [2]: 126%
- ABCA1 expression ([3]; 1 μM TO-901317 alone): increased
- ABCA1 expression [3, 8]: further increased
- increase of secreted Aβ40 over vehicle-treated cells [4]: 25%
- ABCA1 expression ([5]; 1 μM TO-901317 alone): increased
- ABCA1 expression [5, 8]: further increased

SMILES: CC(C)CC[C@@H](O)[C@@H](C)[C@H]1CC[C@H]2[C@@H]3CC=C4C[C@@H](O)CC[C@]4(C)[C@H]3CC[C@]12C [22-hydroxycholesterol, 22(R)-hydroxycholesterol]
- ABCA1 induction, densitometric analysis [1]: equivalent extent
- expression of ABCA1 ([1]; 10 μM retinoic acid and 22-hydroxycholesterol together, untreated cells low or undetectable): clearly apparent
- up-regulation of ABCA1 in cells treated only with the one compound ([1]; compound alone, some experiments): weak up-regulation
- secreted Aβ42 after 22-hydroxycholesterol/retinoic acid treatment, in words [2, 9]: significantly increased
- increase of Aβ42, control cells of the RNAi experiment [2, 10]: 62%
- increase of secreted Aβ42 over vehicle-treated cells [2]: 65%
- ABCA1 expression [3, 11]: increased
- ABCA1 levels [6]: detectable ABCA1 levels only after induction
- secreted Aβ40 after 22-hydroxycholesterol/retinoic acid treatment, in words [4, 9]: significantly increased
- increase of Aβ40, control cells of the RNAi experiment [4, 10]: 29%
- increase of secreted Aβ40 over vehicle-treated cells [4]: 29%
- ABCA1 expression [5, 11]: increased
- ABCA1 expression with increasing concentration ([7]; 22-hydroxycholesterol together with retinoic acid, from 100 nM to 10 uM): further increased ABCA1 expression
- ABCA1 protein compared to untreated cells ([7]; one-day treatment, 100 nM 22-hydroxycholesterol together with 100 nM retinoic acid): up-regulation of ABCA1 protein

SMILES: CC(C)[C@@H](O)CC[C@@H](C)[C@H]1CC[C@H]2[C@@H]3CC=C4C[C@@H](O)CC[C@]4(C)[C@H]3CC[C@]12C [24S-hydroxycholesterol]
- ABCA1 expression through interactions with LXRα or LXRβ (LXRα or LXRβ isoforms): induces ABCA1 expression

SMILES: CC(C)CCC[C@@H](C)[C@H]1CC[C@H]2[C@@H]3C(=O)C=C4C[C@@H](O)CC[C@]4(C)[C@H]3CC[C@]12C [7-ketocholesterol]
- ABCA1 induction, densitometric analysis [1]: only half that level
- increase of ABCA1 protein (immunoblot) compared with 22-hydroxycholesterol [1]: not as efficacious
